Assay results reported in the NIST ThermoML archive (doi:10.1007/s10765-009-0622-2).
± gives the expanded uncertainty stated by the source.

Legend:
[1] = 298.15 K; 101.33 kPa; Liquid
[2] = xn = mol fraction of the nth substance listed; conditions: 298.15 K, 101 kPa, Liquid

CCCCCC [hexane]
[1]
Conditions | mass density [kg/m3] | viscosity [mPa·s]
– | 654.7 ± 0.7 | 0.2973 ± 0.0062

CCc1ccccc1 [ethylbenzene] + CCCCCC
[2]
Conditions | viscosity [mPa·s]
x2 = 0.0437 | 0.6071 ± 0.011
x2 = 0.0884 | 0.5751 ± 0.01
x2 = 0.183 | 0.5169 ± 0.0095
x2 = 0.2262 | 0.4791 ± 0.0089
x2 = 0.2774 | 0.4672 ± 0.0088
x2 = 0.3283 | 0.445 ± 0.0084
x2 = 0.3784 | 0.4234 ± 0.0081
x2 = 0.4359 | 0.4047 ± 0.0078
x2 = 0.488 | 0.3902 ± 0.0076
x2 = 0.5429 | 0.3761 ± 0.0074
x2 = 0.5916 | 0.3654 ± 0.0072
x2 = 0.6534 | 0.3527 ± 0.007
x2 = 0.705 | 0.3426 ± 0.0069
x2 = 0.7644 | 0.3326 ± 0.0067
x2 = 0.809 | 0.325 ± 0.0066
x2 = 0.8882 | 0.313 ± 0.0064
x2 = 0.9478 | 0.3046 ± 0.0063

Cc1ccccc1C [1,2-dimethylbenzene]
[1]
Conditions | mass density [kg/m3] | viscosity [mPa·s]
– | 874.89 ± 0.48 | 0.7506 ± 0.013

Cc1ccccc1C [1,2-dimethylbenzene] + CCCCCC
[2]
Conditions | mass density [kg/m3] | viscosity [mPa·s]
x2 = 0.052 | 863.09 ± 0.48 | 0.678 ± 0.012
x2 = 0.1413 | 842.86 ± 0.49 | 0.5944 ± 0.011
x2 = 0.2482 | 818.74 ± 0.51 | 0.5239 ± 0.0096
x2 = 0.2901 | 809.33 ± 0.52 | 0.493 ± 0.0091
x2 = 0.355 | 794.79 ± 0.53 | 0.462 ± 0.0087
x2 = 0.4004 | 784.66 ± 0.54 | 0.4425 ± 0.0084
x2 = 0.4815 | 766.65 ± 0.56 | 0.4126 ± 0.0079
x2 = 0.51 | 760.35 ± 0.56 | 0.4031 ± 0.0078
x2 = 0.5856 | 743.71 ± 0.58 | 0.3816 ± 0.0075
x2 = 0.6351 | 732.88 ± 0.59 | 0.3711 ± 0.0073
x2 = 0.6753 | 724.12 ± 0.6 | 0.3632 ± 0.0072
x2 = 0.7858 | 700.23 ± 0.63 | 0.3344 ± 0.0067
x2 = 0.8317 | 690.38 ± 0.64 | 0.3264 ± 0.0066
x2 = 0.9014 | 675.52 ± 0.66 | 0.314 ± 0.0064

Cc1ccc(C)cc1 [1,4-dimethylbenzene]
[1]
Conditions | mass density [kg/m3] | viscosity [mPa·s]
– | 856.51 ± 0.5 | 0.5999 ± 0.011

CCc1ccccc1 [ethylbenzene]
[1]
Conditions | mass density [kg/m3] | viscosity [mPa·s]
– | 862.37 ± 0.49 | 0.6369 ± 0.011

Cc1cccc(C)c1 [1,3-dimethylbenzene]
[1]
Conditions | mass density [kg/m3] | viscosity [mPa·s]
– | 859.78 ± 0.49 | 0.583 ± 0.01

Cc1cccc(C)c1 [1,3-dimethylbenzene] + CCCCCC
[2]
Conditions | viscosity [mPa·s]
x2 = 0.1329 | 0.4984 ± 0.0093
x2 = 0.1519 | 0.4896 ± 0.0091
x2 = 0.2717 | 0.4418 ± 0.0084
x2 = 0.339 | 0.4221 ± 0.0081
x2 = 0.4303 | 0.3978 ± 0.0077
x2 = 0.448 | 0.3935 ± 0.0077
x2 = 0.5734 | 0.3652 ± 0.0072
x2 = 0.643 | 0.3513 ± 0.007
x2 = 0.6663 | 0.3473 ± 0.007
x2 = 0.719 | 0.3389 ± 0.0068
x2 = 0.8049 | 0.3238 ± 0.0066
x2 = 0.873 | 0.3175 ± 0.0065
x2 = 0.9278 | 0.3115 ± 0.0064

Cc1ccc(C)cc1 [1,4-dimethylbenzene] + CCCCCC
[2]
Conditions | mass density [kg/m3] | viscosity [mPa·s]
x2 = 0.0423 | 847.8 ± 0.5 | 0.566 ± 0.01
x2 = 0.1073 | 834.45 ± 0.51 | 0.5235 ± 0.0096
x2 = 0.2137 | 812.6 ± 0.52 | 0.4702 ± 0.0088
x2 = 0.2956 | 795.81 ± 0.53 | 0.4378 ± 0.0083
x2 = 0.3769 | 779.21 ± 0.55 | 0.4119 ± 0.0079
x2 = 0.4201 | 770.42 ± 0.56 | 0.3998 ± 0.0077
x2 = 0.5355 | 747.03 ± 0.58 | 0.3717 ± 0.0073
x2 = 0.562 | 741.69 ± 0.58 | 0.3654 ± 0.0072
x2 = 0.6427 | 725.47 ± 0.6 | 0.3502 ± 0.007
x2 = 0.7455 | 704.95 ± 0.62 | 0.3324 ± 0.0067
x2 = 0.7909 | 695.94 ± 0.63 | 0.3256 ± 0.0066
x2 = 0.8792 | 678.48 ± 0.66 | 0.313 ± 0.0064
x2 = 0.9599 | 662.62 ± 0.68 | 0.3024 ± 0.0063
